Source: patent US5786165A, “Herbicide test method” (Agrevo UK Limited, priority 1994, dated 1998)

Tests used:
[1] = system: crude, desalted homogenates from pea seedlings; assay: Adenylate metabolism pathway in a crude plant homogenate; format: in vitro ADME, Peas (Pisum sativum L var Onward); settings: without ATP, 10 minutes at 25° C.
Description: Peas (Pisum sativum L var Onward) were grown in soil for 10 days at 25° C. with a 16 hour/8 hour light/dark cycle. The seedlings were harvested close to soil level and a crude homogenate of was prepared by homogenization in 2 volumes of ice cold buffer containing tris-HCl (0.1M, pH 7.4 with 5M NaOH), 0.1 mM dithiothreitol and 0.4M sucrose using a Waring blender (1 minute, top speed). The homogenate was passed through 6 layers of muslin and 2.5 ml desalted on a sephadex (Registered Trade Mark) PD10 column (1.5 cm×8 cm) which had been pre-equilibrated with the homogenization buffer. Protein was eluted using the same buffer. The assay contained, in a total volume of 250 μl, 50 mM Tris-HCl (pH 6.5), 50 mM KCl, 0.05% (w/v) BSA and […] protein. ATP (5 mM) was also included where indicated. The assay was started by the addition of [^14 C] adenosine (500 μM, 0.2 μCi). After incubation at 25° C. for 10 minutes, the reaction was stopped by the addition of 0.25 ml ice cold HClO4 (0.4M). Precipitated protein was removed by centrifugation (13,000 g, 2 minutes) and 0.4 ml of the resulting supernatant applied to phenylsilane bonded silica gel columns (500 mg) which had been previously washed with 2 volumes of methanol and then 2 ml 0.4M HClO4. Samples were eluted with 4 ml 0.4M HClO4. The pH of the eluate was adjusted on ice to between 5.5 and 7.0 with 5M KOH. The neutralised extract was centrifuged (13,000 g, 2 minutes) and evaporated to dryness in a Gyrovap (Registered Trade Mark). The sample was then re-dissolved in 0.5 ml 10 mM HCl and centrifuged (13,000 g, 2 minutes) prior to HPLC analysis. The products were analysed using reverse phase chromatography with a spherisorb (Registered Trade Mark) column (25 cm×0.46 cm), solvent 1: 95:5 10 mM KH2 PO4 : methanol; solvent 2: 88:12 10 mM KH2 PO4 : methanol, pH 5.3, step change at 6 minutes, Flow rate: 1 ml/minute.

plant AMP deaminase = assay: Plant AMP deaminase inhibition assay; format: biochemical, Pea seedlings; settings: for IC50: 10 minute preincubation, substrate concentration 640 μM, read-out: 50% inhibition of AMP deaminase activity
Description: (§1) Pea seedlings were excised near soil level, the stems quickly washed with distilled water and then stood upright in a […] containing 2 ml of compound solution or water (control). A section (approx 2 mm) was cut from the base of the stem while it was immersed to prevent air locks from forming in the xylem. The seedlings were incubated in the light at room temperature (approx 20° C.) in a moving air stream. At intervals, individual seedlings were extracted and the levels of AMP deaminase determined by extraction in 2 volumes ice cold citrate buffer (0.1M, pH 7), 0.5 mM dithiothreitol using a pestle and mortar. The homogenate was passed through 6 layers of muslin and loaded onto a sephadex gel filtration column (1.5 cm×8 cm) which had previously been equilibrated with 30 mM citrate (pH 7.1), 50 mM KCl and 0.5% (w/v) BSA (Assay buffer). The protein was eluted using the assay buffer and used directly for the enzyme assay. The assay is based on the release of ammonia (McCullough (1967), Clinica Chimica Acta, 17, 297) and contained in a total volume of 0.5 ml 60 mM citrate buffer (pH 7.1 with 5M NaOH) 100 mM KCl, 0.1% (w/v) BSA and 5 mM AMP. The reaction was started by the addition of 50 μl extract. At 15 minute intervals from 0 to 60 minutes, the reaction was stopped by the addition of 420 μl reagent 1 (0.1M phenol, 0.17 mM sodium nitroprusside) immediately followed by 275 μl reagent 2 (0.125M NaOH, 0.38M Na2 HPO4 and 5 ml HOCl in a total volume of 500 ml). Following incubation for 60 minutes at 55° C., the absorbance of the solutions at 625 nm was determined.
Pea seedlings were grown as described in Test Example 2. The seedlings were harvested close to soil level and homogenized in 2 volumes of ice cold phosphate buffer (pH 7.5) containing 0.1 mM dithiothreitol and 0.4M sucrose using a Waring blender (1 minute, top speed). All of the following operations were carried out at 4° C. The homogenate was filtered through 6 layers of muslin and centrifuged at 100,000 g for 20 minutes to remove cell debris. To the resulting supernatant was added 40% (w/v) ammonium sulphate while stirring constantly. The precipitate was collected by centrifugation (12,000 g, 15 minutes) and dissolved in 30 ml phosphate buffer (pH 7.5), 0.1 mM dithiothreitol then dialyzed overnight against 2 l of the same buffer. Insolubles formed during the overnight dialysis were removed by centrifugation (7,000 g, 10 minutes). The supernatant was applied to a phospho-cellulose column (1.5×8 cm) which had been pre-equilibrated with 0.1M phosphate buffer (pH 7.5). After loading, the column was washed with 14 ml phosphate buffer (0.1M, pH 7.5) and the enzyme eluted with 0.6M phosphate buffer (pH 7.5). Activity was determined using the ammonia release assay described in Test Example 3 above.

[2] = biological target: T1, calf intestinal mucosa adenosine deaminase (Bos taurus, UniProt P56658); assay: Mammalian adenosine deaminase inhibition assay; format: biochemical
T1 construct: calf intestinal mucosa adenosine deaminase; purchased Sigma Chemical Company Limited; host or cells: calf intestinal mucosa
Description: Mammalian Adenosine Deaminase Inhibition Assay
A suitable source of enzyme is calf intestinal mucosa adenosine deaminase supplied by the Sigma Chemical Company Limited. The assay employed follows the protocol provided by the supplier and measures a decrease in absorption at 265 nm as the substrate adenosine is utilized. A 10 minute preincubation of enzyme and inhibitor prior to addition of the substrate was employed.

AMP deaminase = assay: Extractable levels of AMP deaminase in treated pea seedlings; format: in vivo
Description: as §1, with “At 15 minute intervals from 0 to 60 minutes, the reaction was stopped by the addition of 420 μl reagent 1 (0.1M phenol, 0.17 mM sodium nitroprusside) immediately followed by 275 μl reagent 2 (0.125M NaOH, 0.38M Na2 HPO4 and 5 ml HOCl in a total volume of 500 ml).” left out

Pea seedlings = assay: In planta metabolism of carbocyclic coformycin; format: in vivo; settings: 10 μM [3H] compound via the transpiration stream; 4 hours incubation
Description: Pea seedlings were grown as described in Test Example 2, harvested as described in Test Example 3 and then supplied with 10 μM (400 Ci mol^-1) [^3 H] carbocyclic coformycin via the transpiration stream. After incubation periods, pairs of seedlings were rapidly frozen in liquid nitrogen, ground to a fine powder and extracted in 2 ml ice cold 0.4M HClO4. The extracts were processed for HPLC analysis as described in Test Example 2 above except that the final sample was resuspended in 0.5 ml water instead of 10 mM HCl. [^3 H] carbocyclic coformycin and [^3 H] carbocyclic coformycin 5'-phosphate were separated using cation exchange chromatography with a Partisil (Registered Trade Mark) SCX column (8.0 cm×0.46 cm), 0.05M NH4 H2 PO4, pH 2.6; flow rate=2 ml/minute.

[3] = system: extractable ATP levels in pea seedlings; assay: Measurement of extractable ATP levels; format: in vivo, Peas
Description: Peas were grown as described in Test Example 1 and exposed to carbocyclic coformycin via the transpiration stream as outlined in Test Example 3. Individual seedlings were rapidly frozen in liquid nitrogen. The frozen tissue was ground to a fine powder using a pestle and mortar then 1 ml ice cold 0.4M HClO4 was added. The frozen acid was ground to a fine powder tissue, the mixture allowed to thaw and then incubated on ice for 15 minutes. The extract was centrifuged (4,000 rpm, 5 minutes).
ATP measurements were made using the luciferase assay and a LUMAC Biocounter M2500 (6370 AC Landgraaf, The Netherlands). Samples were diluted 1:10,000 in water and 100 μl was assayed according to the manufacturer's instructions.

T1 sequence (P56658 whole entry): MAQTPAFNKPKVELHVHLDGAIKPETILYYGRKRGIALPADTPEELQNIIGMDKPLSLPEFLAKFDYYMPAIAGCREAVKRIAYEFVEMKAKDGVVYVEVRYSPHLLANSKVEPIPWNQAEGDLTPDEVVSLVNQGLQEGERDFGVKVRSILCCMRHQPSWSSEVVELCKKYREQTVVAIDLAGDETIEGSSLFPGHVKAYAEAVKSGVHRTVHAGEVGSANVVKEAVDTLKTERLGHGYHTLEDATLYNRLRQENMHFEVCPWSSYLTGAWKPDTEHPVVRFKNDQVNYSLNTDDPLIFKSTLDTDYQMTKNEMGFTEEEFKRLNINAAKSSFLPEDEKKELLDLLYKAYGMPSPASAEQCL

| SMILES | % of radiolabel as ADP [1] | % of radiolabel as AMP [1] | % of radiolabel as ATP [1] | % of radiolabel as IMP [1] | % of radiolabel as inosine [1] | % of radiolabel as adenosine ([1]; 500 µM) | inhibition of plant AMP deaminase (in words) (plant AMP deaminase) | IC50 (plant AMP deaminase) | inhibition of mammalian adenosine deaminase (in words) [2] | IC50 ([2]; 10 minute preincubation, substrate concentration 60 μM, read-out: 50% inhibition of adenosine deaminase) | extractable levels of AMP deaminase (in words) (AMP deaminase; applied to pea seedlings via the transpiration stream) | extractable levels of AMP deaminase, % of the control levels (AMP deaminase; treatment for 1 hour via the transpiration stream, control 19 μmols ammonia release per gram fresh weight per minute) | major metabolite in planta (Pea seedlings) | ATP levels relative to the control levels ([3]; 100 μM via the transpiration stream, 4 hours treatment, control 333 nmols ATP per gram fresh weight) | rise in extractable levels of ATP (in words) ([3]; in vivo) |
| --- | --- | --- | --- | --- | --- | --- | --- | --- | --- | --- | --- | --- | --- | --- | --- |
| Nc1ncnc2c1ncn2[C@@H]1O[C@H](CO)[C@@H](O)[C@H]1O [[^14 C adenosine, adenosine] | 0% | 0% | 0% | 0% | 0% | 100% | – | – | – | – | – | – | – | – | – |
| O=P(O)(O)OC[C@H]1C[C@@H](n2cnc3c2N=CNC[C@H]3O)[C@H](O)[C@@H]1O [carbocyclic coformycin 5'-phosphate] | – | – | – | – | – | – | potent inhibitor | 0.02 µM | – | – | – | – | – | – | – |
| OC[C@H]1C[C@@H](n2cnc3c2N=CNC[C@H]3O)[C@H](O)[C@@H]1O [carbocyclic coformycin] | – | – | – | – | – | – | relatively poor inhibitor | 120 µM | potent inhibitor | 0.025 µM | rapid decrease | 20-30% | co-chromatographed with authentic carbocyclic coformycin 5'-phosphate | approximately twice | remarkable rise |
